Assay [1] addresses GST-Alk protein (mutant L1196M 1058-1620) (Homo sapiens (Human), UniProt Q9UM73, L1196M). Kind of assay: HTRF kinase test with GST-Alk protein, mutant L1196M (ATP 200 microM, enzyme 1 nM). Type of assay: biochemical. The conditions noted are these: GST-Alk mutant L1196M 1058-1620, ATP 200 microM. A general note: In TR-FRET formats the signal depends on donor and acceptor labels being close together.

The target in assay [2] is GST-Alk protein (wild-type form 1058-1620) (Homo sapiens (Human), UniProt Q9UM73). Kind of assay: HTRF kinase test with GST-Alk protein, wild-type form (ATP 400 microM, enzyme 2 nM). The class given is biochemical. The conditions noted are these: GST-Alk wild-type form 1058-1620, ATP 400 microM.
GST-Alk protein (wild-type form 1058-1620), sequence (Q9UM73 1058-1620): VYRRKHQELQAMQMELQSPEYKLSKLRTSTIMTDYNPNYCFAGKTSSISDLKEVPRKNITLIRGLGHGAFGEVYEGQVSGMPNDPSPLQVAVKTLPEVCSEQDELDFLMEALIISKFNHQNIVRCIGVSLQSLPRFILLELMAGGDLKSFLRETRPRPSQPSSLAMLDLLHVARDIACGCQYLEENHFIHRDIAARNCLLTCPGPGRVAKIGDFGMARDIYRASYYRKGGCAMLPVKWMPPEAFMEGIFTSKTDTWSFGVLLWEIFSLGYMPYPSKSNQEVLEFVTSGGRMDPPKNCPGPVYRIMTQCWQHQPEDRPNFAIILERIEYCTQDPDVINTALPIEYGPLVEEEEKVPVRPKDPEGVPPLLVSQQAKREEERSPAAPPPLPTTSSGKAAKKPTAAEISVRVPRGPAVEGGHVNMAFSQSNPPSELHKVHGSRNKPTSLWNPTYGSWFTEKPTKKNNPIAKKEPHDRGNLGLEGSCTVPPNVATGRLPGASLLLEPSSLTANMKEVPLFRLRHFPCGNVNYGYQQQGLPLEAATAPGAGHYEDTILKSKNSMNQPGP

GST-Alk protein (mutant L1196M 1058-1620), sequence (Q9UM73 1058-1620 L1196M): as the sequence (Q9UM73 1058-1620) above, with L139M counted along it

In general, IC50 refers to the concentration that inhibits the measured activity by half. Low values mean greater potency in that assay, high ones weaker potency in that assay. `COc1nc(C)ccc1-c1c(CO)sc2cnc(Nc3cc(C)c(N4CCN(C)CC4)cc3OC(C)C)nc12` [Compound I-191, [7-(2-Methoxy-6-methylpyridin-3-yl)-2-{[5-methyl-4-(4-methylpiperazin-1-yl)-2-(propan-2-yloxy)phenyl]amino}thieno[3,2-d]pyrimidin-6-yl]methanol]: the IC50 in assay [1] was 14 nM; in assay [2], 12 nM.

The values above are taken from patent publication US9115140B2, “Thienopyrimidine derivatives, processes for the preparation thereof and therapeutic uses thereof” (SANOFI, priority 2012, dated 2015).
